Experimental data: US4582821A, “Inhibition of cyclic nucleotide independent protein kinases” (E. I. Du Pont de Nemours and Company, priority 1983, dated 1986)

Experiments:
lymphoma cell line YAC-1 = assay: Tumor cell line growth inhibition, YAC-1; format: cell-based
Procedure: (§1) In this series of experiments, the tumor cell growth inhibitory capacity of various peptide halomethyl ketones was tested against lymphoma cell lines YAC-1 and MOLT-4, and against an erythroleukemia cell line, K-562. The lymphoma cell line YAC-1 is described by Kiessling, et al., Eur. J. Immunol. 5:112 (1975), and MOLT-4 is described by Minowada, et al., J. Natl. Cancer Inst. 49:891 (1972) and Nilsson, et al., Int. J. Cancer 15:321 (1975). The erythroleukemia cell line K-562 is described by Lozzio, et al., Leuk. Res. 3:363 (1979). In these experiments, cells were grown on standard media as 10 mL suspension cultures. Initial cell density was 10^5 cells/mL. At day 0, test compounds were introduced in ethanol; control cultures received an equal volume of ethanol. Cells were counted at the times indicated.

[1] = system: erythroleukemia cell line K-562; assay: Tumor cell line growth inhibition, K-562; format: cell-based
Procedure: as §1

[2] = system: lymphoma cell line MOLT-4; assay: Tumor cell line growth inhibition, MOLT-4; format: cell-based
Procedure: as §1

p130^fps [3] = biological target: T1, p130^fps (UniProt P00530+P03323); assay: Immune complex phosphorylation by p130fps immunoprecipitates of FSV-transformed cells; format: biochemical, Fujinami sarcoma virus (FSV); details: for Activity (cpm), FSV: anti-gag immunoprecipitates, no inhibitor 27036; for Activity (cpm), Control: extracts immunoprecipitated with normal serum, no inhibitor 2624
T1 construct: anti-gag serum and Staphylococcus protein A suspension (for FSV-transformed cells); viral gag-derived N-terminal portion (natural gag-fps fusion); expressed in transfected cells; immune complex with anti-gag serum and Staphylococcus protein A
Procedure: In this experiment, Boc-LeuCH2 Br was tested as an inhibitor of pp60^src and p130^fps, the tyrosine-specific protein kinases encoded by the transforming genes of RSV and Fujinami sarcoma virus, respectively.
These viral gene products were partially purified by preparation of immune complexes substantially according to the technique described by Collett et al., Proc. Nat. Acad. Sci. USA 75:2021 (1978). In this procedure, immunoprecipitates are prepared by incubation of extracts of virus-transformed cells with tumor-bearing rabbit serum (TBR) and Staphylococcus protein A suspension (for RSV-transformed cells) or anti-gag serum and Staphylococcus protein A suspension (for FSV-transformed cells).
Assay mixtures contained, in a final volume of 70 μL, 100 μg of immune complex protein, 20 mM Hepes, pH 7.4, and 1 mM MnCl2. Phosphorylation was initiated by addition of 1 μM (4 μCi) [γ-^32 P] ATP. After 10 minutes at about 23°, reactions were terminated by pipetting 20 μL aliquots of assay mixture onto 2×2 cm squares of Whatman 3 MM filter paper, which were immediately suspended in 10% TCA/10 mM sodium pyrophosphate. […] Controls for the immunoprecipitation procedure were prepared by immunoprecipitating transformed cell extracts with normal serum. Values in parentheses represent specific phosphorylation induced by virus-transformed cells.
(§2) In a related experiment, the capacity of Boc-LeuCH2 Br to inhibit phosphorylation of casein by p130^fps was determined. These tests were conducted substantially as described above, except 1 mg/mL casein was added to assay mixtures as a substrate, and reactions were terminated by addition of 2.5 mM unlabeled ATP and immediate cooling to 0°. Phosphorylated casein was separated from immunoprecipitate suspensions by centrifugation at 3,000 xg for 3 minutes. The resulting pellets were resuspended in 70 μL of 10 mM Hepes, pH 7.5, and 20 μL aliquots were pipetted onto filter paper squares as previously described.
This experiment was conducted substantially according to the procedures described in Example 17, above. In Table 5, "FSV" refers to immunoprecipitates of FSV-transformed cell extracts prepared by addition of anti-gag serum; controls were extracts immunoprecipitated with normal serum.

p130^fps [4] = biological target: T1, p130^fps; assay: Casein phosphorylation by p130fps immunoprecipitates; format: biochemical, Fujinami sarcoma virus (FSV); details: for Casein Phosphorylation: 1 mg/mL casein
Procedure: as §2, with “described. […]” for “described.”

With `CC(C)CC(NC(=O)OC(C)(C)C)C(=O)CBr` (stereo not shown) [Boc-LeuCH2 Br] as the molecule, how does the “% Growth Relative to Control Cultures” value (lymphoma cell line YAC-1; 0.4 μg/mL, day 4) read?
The value was 97%.

And the “% Growth Relative to Control Cultures” value (lymphoma cell line YAC-1; 2.0 μg/mL, day 1)?
Its value is 42%.

And the “% Growth Relative to Control Cultures” value (lymphoma cell line YAC-1; 2.0 μg/mL, day 2)?
Its value is 31%.

And the “% Growth Relative to Control Cultures” value (lymphoma cell line YAC-1; 2.0 μg/mL, day 3)?
The value was 28%.

And the “% Growth Relative to Control Cultures” value (lymphoma cell line YAC-1; 2.0 μg/mL, day 4)?
Its value is 12%.

What about the “% Growth Relative to Control Cultures” value (lymphoma cell line YAC-1; 2.0 μg/mL, day 7) of the same molecule?
The value was 28%.

And the “% Growth Relative to Control Cultures” value (lymphoma cell line YAC-1; 10. μg/mL, day 1)?
The value was 67%.

What about the “% Growth Relative to Control Cultures” value (lymphoma cell line YAC-1; 10. μg/mL, day 2) of the same molecule?
Its value is 32%.

What about the “% Growth Relative to Control Cultures” value (lymphoma cell line YAC-1; 10. μg/mL, day 3) of the same molecule?
Its value is 22%.

And the “% Growth Relative to Control Cultures” value (lymphoma cell line YAC-1; 10. μg/mL, day 4)?
The value was 13%.

What about the “% Growth Relative to Control Cultures” value (lymphoma cell line YAC-1; 10. μg/mL, day 7) of the same molecule?
Its value is 16%.

And the “% Growth Relative to Control Cultures” value ([1]; 0.4 μg/mL, day 3)?
The value was 70%.

What about the “% Growth Relative to Control Cultures” value ([1]; 0.4 μg/mL, day 7) of the same molecule?
Its value is 85%.

And the “% Growth Relative to Control Cultures” value ([1]; 2.0 μg/mL, day 1)?
Its value is 53%.

What about the “% Growth Relative to Control Cultures” value ([1]; 2.0 μg/mL, day 2) of the same molecule?
The value was 22%.

What about the “% Growth Relative to Control Cultures” value ([1]; 2.0 μg/mL, day 3) of the same molecule?
Its value is 19%.

And the “% Growth Relative to Control Cultures” value ([1]; 2.0 μg/mL, day 4)?
The value was 16%.

What about the “% Growth Relative to Control Cultures” value ([1]; 2.0 μg/mL, day 7) of the same molecule?
The value was 69%.

And the “% Growth Relative to Control Cultures” value ([1]; 10. μg/mL, day 1)?
The value was 33%.

And the “% Growth Relative to Control Cultures” value ([1]; 10. μg/mL, day 2)?
Its value is 22%.

And the “% Growth Relative to Control Cultures” value ([1]; 10. μg/mL, day 3)?
Its value is 7%.

And the “% Growth Relative to Control Cultures” value ([1]; 10. μg/mL, day 4)?
The value was 17%.

What about the “% Growth Relative to Control Cultures” value ([1]; 10. μg/mL, day 7) of the same molecule?
Its value is 13%.

And the “% Growth Relative to Control Cultures” value ([2]; 0.4 μg/mL, day 2)?
The value was 66%.

And the “% Growth Relative to Control Cultures” value ([2]; 0.4 μg/mL, day 3)?
Its value is 84%.

And the “% Growth Relative to Control Cultures” value ([2]; 0.4 μg/mL, day 4)?
The value was 67%.

And the “% Growth Relative to Control Cultures” value ([2]; 2.0 μg/mL, day 2)?
The value was 29%.

What about the “% Growth Relative to Control Cultures” value ([2]; 2.0 μg/mL, day 3) of the same molecule?
The value was 31%.

And the “% Growth Relative to Control Cultures” value ([2]; 2.0 μg/mL, day 4)?
Its value is 21%.

And the “% Growth Relative to Control Cultures” value ([2]; 2.0 μg/mL, day 7)?
The value was 74%.

And the “% Growth Relative to Control Cultures” value ([2]; 10. μg/mL, day 1)?
The value was 49%.

What about the “% Growth Relative to Control Cultures” value ([2]; 10. μg/mL, day 2) of the same molecule?
Its value is 16%.

And the “% Growth Relative to Control Cultures” value ([2]; 10. μg/mL, day 3)?
Its value is 14%.

And the “% Growth Relative to Control Cultures” value ([2]; 10. μg/mL, day 4)?
The value was 9%.

And the “% Growth Relative to Control Cultures” value ([2]; 10. μg/mL, day 7)?
The value was 14%.

And the “% inhibition” value (p130^fps [3]; 250 nmoles/mg protein)?
The value was 48%.

And the “Activity (cpm), FSV” value (p130^fps [3]; 250 nmoles/mg protein)?
The value was 13932 cpm.

And the “Activity (cpm), Control” value (p130^fps [3]; 250 nmoles/mg protein)?
The value was 2370 cpm.

What about the “% inhibition” value (p130^fps [3]; 500 nmoles/mg protein) of the same molecule?
The value was 69%.

What about the “Activity (cpm), FSV” value (p130^fps [3]; 500 nmoles/mg protein) of the same molecule?
Its value is 8344 cpm.

What about the “Activity (cpm), Control” value (p130^fps [3]; 500 nmoles/mg protein) of the same molecule?
The value was 2180 cpm.

And the “Immune Complex Phosphorylation, specific phosphorylation (in parentheses)” value (p130^fps [3]; p130fps + anti-gag serum, 250 nmoles per mg protein, no inhibitor 20104)?
The value was 6324 cpm.

What about the “Immune Complex Phosphorylation” value (p130^fps [3]; p130fps + anti-gag serum, 250 nmoles per mg protein, no inhibitor 29244) of the same molecule?
Its value is 15222 cpm.

And the “Immune Complex Phosphorylation” value (p130^fps [3]; p130fps + control serum, 250 nmoles per mg protein, no inhibitor 9140)?
The value was 8898 cpm.

What about the “Immune Complex Phosphorylation” value (p130^fps [3]; related experiment with 1 mg/mL casein, p130fps + anti-gag serum, no inhibitor 7663) of the same molecule?
Its value is 1656 cpm.

And the “Immune Complex Phosphorylation” value (p130^fps [3]; related experiment with 1 mg/mL casein, p130fps + control serum, no inhibitor 1184)?
Its value is 1286 cpm.

What about the “Casein Phosphorylation” value (p130^fps [4]; p130fps + anti-gag serum, no inhibitor 4442) of the same molecule?
The value was 618 cpm.

And the “Casein Phosphorylation” value (p130^fps [4]; p130fps + control serum, no inhibitor 326)?
Its value is 226 cpm.

And the “Percent Inhibition” value (p130^fps [4]; casein-phosphorylating activity of p130fps, concentration not given)?
The value was 63%.
